Tests used:
[1] = biological target: T1, human SOD1 protein (#HY-P71048, MCE) (Homo sapiens, UniProt P00441); assay: SPR (Biacore T200, CM5 chip, SOD1 immobilised); type: binding
T1 construct: commercial human SOD1 protein (MCE); amine-coupled to CM5 chip

[2] = biological target: T2, SOD1 (A549 cells) (Homo sapiens, UniProt P00441); assay: CETSA, western blot; type: biochemical; conditions: 10 μM DIPY, 30 min; A549 cells pretreated with RSL3 5 μM for 8 h; 45-72 °C
T2 construct: endogenous full-length SOD1 in A549 cells, read by western blot
T2 sequence (P00441 2-154): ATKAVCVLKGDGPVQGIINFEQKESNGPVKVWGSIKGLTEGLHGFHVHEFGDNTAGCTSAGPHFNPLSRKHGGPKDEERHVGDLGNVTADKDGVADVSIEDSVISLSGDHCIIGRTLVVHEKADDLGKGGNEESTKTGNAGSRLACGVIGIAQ

T1 sequence (P00441 2-154, one chain of several): as the sequence (P00441 2-154) above

OCCN(CCO)c1nc(N2CCCCC2)c2nc(N(CCO)CCO)nc(N3CCCCC3)c2n1 [Dipyridamole]
Kd [1]: 8.83 µM | thermal stability (CETSA) [2]: DIPY elevated the thermal stability of SOD1 compared with the control group
